{"source": "patent US20080317769A1", "about": "“Vaccine Composition Comprising Alpha-Galactosylceramide as an Adjuvant For Intranasal Administration” (priority 2005, published 2008)", "key": {"[1]": {"system": "IFN-γ and IL-4 production", "assay": "IFN-γ and IL-4 levels in spleen and CLN, Balb/c mice", "assay_type": "in vivo", "method": "(§1) It was directly investigated whether α-GalCer nasal vaccine adjuvant skews immune response into Th1 or Th2 immune response. To measure the secretions of cytokines, cells were obtained from spleen and cervical lymph node (CLN) a week after the final immunization. The cells ([…]) were cultured with 500 μg/ml of OVA for 4 days. The secretions of IFN-γ and IL-4 in the culture supernatant were measured by using the mouse IFN-γ and IL-4 OptELA set ELISA kit (BD Pharmigen) according to the manufacturer's instruction.\nAs described in Example 2, different amounts of αGalCer (0.125, 0.5, 2.0 μg) and OVA were intranasally administered to Balb/c mice (Charles River Laboratories, Oriet Co., Ltd., Korea), followed by measurement of the levels of IFN-γ and IL-4 in spleen and CLN."}, "[2]": {"system": "IFN-γ and IL-4 production", "assay": "IFN-γ and IL-4 production of spleen and CLN cells cultured with inactive PR8", "assay_type": "in vivo", "details": "Balb/c mice; inactivated PR8 + αGalCer intranasal; cells cultured with inactive PR8 for 5 days", "method": "(§2) To examine the role of αGalCer as an adjuvant of a killed virus, influenza virus A/PR/8/34 (PR8), which was inactivated with formalin, was used as an antigen to examine the anti-virus immune response. Balb/c mice were immunized with indicated amounts (1 μg, 10 μg) of inactivated PR8 alone or together with αGalCer by the intranasal administration twice at two-week intervals. Two weeks after the final immunization, the mice were sacrificed and following experiments were performed.\nThe supernatants were obtained and the levels of IFN-γ and IL-4 therein were measured by the same manner as described in Example 2."}, "[3]": {"details": "mouse treated with 2200 μg/Kg of αGalCer; cited from earlier work"}, "IFN-γ and IL-4 secretion": {"system": "IFN-γ and IL-4 secretion", "assay": "IFN-γ and IL-4 secretion of spleen and CLN cells cultured with OVA (sandwich ELISA), C57BL/6 mice", "assay_type": "in vivo", "details": "cells cultured with 500 μg/ml OVA for 4 days, one week after final immunization", "method": "as §1"}, "[4]": {"system": "OVA-specific antibody responses", "assay": "OVA-specific antibody responses by ELISA after intranasal co-administration of OVA and αGalCer, C57BL/6 mice", "assay_type": "in vivo", "method": "To investigate the activity of αGalCer as an adjuvant in mucosa, required amount of αGalCer and 100 μg of OVA or 100 μg of OVA alone was diluted with PBS, making 20 μl solution (10 μl/nostril), which was administered to C57BL/6 mice or Balb/c mice (Charles River Laboratories, Orient Co., Ltd., Korea) at 6-8 weeks three times at one-week intervals.\nSix to eight-weeks-old […] mice (Charles River Laboratories, Orient Co., Ltd., Korea) were immunized with 100 μg of OVA alone or together with the indicated amounts of αGalCer (0.125, 0.5, 2.0 μg), diluted with PBS and made 20 μl (10 μl/nostril) solution, three times at one-week intervals.\nA week after the final immunization, the mice were sacrificed. OVA-specific antibody responses were measured by ELISA. The nasal wash sample was obtained by washing the nasal passage with 100 μl of sterilized PBS (Yamamoto et al., J. Immunol., 161: 4115, 1998), and bronchoalveolar lavage fluid was also obtained by the same manner as described to prepare the lung wash (Chung et al., Immunobiology 206: 408, 2002).\nOVA-specific IgG titers in the nasal wash and the lung wash were measured (Chung et al., Immunobiology 206: 408, 2002). To measure IgA, IgG1 and IgG2a titers, two-fold serially diluted samples were used. To determine IgA titer, horseradish-peroxidase-conjugated goat anti-mouse IgA (SIGMA, USA), peroxidase substrate and TMB (SIGMA, USA) were used and 0.5 N—HCL was added thereto to terminate color development. Then, OD450 was measured. To determine IgG, IgG1 and IgG2a titers, alkaline phosphatase-conjugated goat anti-mouse IgG, IgG1 and IgG2a (Southern Biotech, USA) and alkaline phosphatase substrate, p-nitrophenyl phosphate (SIGMA), were used.\nTo assess the immune bias towards Th1 or Th2 immune responses induced by α-GalCer nasal vaccine adjuvant indirectly, IgG isotypes in serum were determined and the ratios of IgG1 to IgG2a were calculated."}, "[5]": {"system": "influenza virus A/PR/8/34", "design": "species or system Balb/c mice", "details": "mouse, in vivo"}, "EG7 tumor cells": {"system": "EG7 tumor cells", "assay": "EG7 tumor challenge after intranasal immunization with OVA and αGalCer", "assay_type": "in vivo", "details": "C57BL/6 mice, 3×10^6 EG7 cells s.c., day 14", "method": "To confirm whether αGalCer could be used as a nasal vaccine adjuvant inducing anticancer activity, C57BL/6 mice were immunized with 100 μg of OVA alone or together with αGalCer (0.125, 0.5, 2.0 μg) by the intranasal administration three times at one-week intervals. Two weeks after the final immunization, 3×10^6 EG7 tumor cells were subcutaneously inoculated in the left flank of the immunized mice. On the 14th day of the inoculation, the mice were sacrificed and the palpable tumors were weighed."}, "[6]": {"system": "IFN-γ-producing CD8+ T cells", "assay": "IFN-γ-producing CD8+ T cells after β-galactosidase stimulation of spleen cells (Ad-LacZ immunization)", "assay_type": "in vivo", "details": "Balb/c mice; Ad-LacZ + 0.125 μg αGalCer intranasal; spleen cells stimulated with 2.5 μg/mL β-galactosidase for 5 days", "method": "Balb/c mice were immunized with 10^6 pfu of replication-deficient live adenovirus harboring beta-galactosidase gene (Ad-LacZ) (Viromed, Korea) alone or together with 0.125 μg of αGalCer by the intranasal administration, two times at two-week intervals. One week after the final immunization, the nasal wash, the lung wash and serum were separated, by the same manner as described in Example 1, to measure β-galactosidase-specific antibody response. In addition, to measure CTL activity, spleen cells were stimulated by 2.5 μg/mL of β-galactosidase for 5 days and IFN-γ-producing CD8+ T cells were examined by intracellular cytokine staining according to the procedure as described in Example <4-2>."}, "[7]": {"system": "immune cells from spleen and CLN", "assay": "Immune cell proliferation, [3H]-thymidine incorporation of spleen and CLN cells cultured with inactivated PR8", "assay_type": "in vivo", "details": "Balb/c mice; inactivated PR8 + αGalCer intranasal; cells cultured with inactivated PR8 for 3 days, [3H]-thymidine 18 hrs", "method": "as §2\nSingle cells separated from the spleen and CLN of the sacrificed mice were cultured with inactivated PR8 for 3 days and [^3H]-thymidine was added and further incubated for 18 hrs. As cells were being proliferated, the level of incorporated [^3H]-thymidine was measured by LSC."}, "[8]": {"system": "PR8 HA-specific antibody responses", "design": "species or system Balb/c mice", "details": "mouse, in vivo"}}, "note": "“Also recorded” adds a separate entry of the source.", "data": [{"compound": "CCCCCCCCCCCCCCCCCCCCCCCCCC(=O)N[C@@H](CO[C@H]1O[C@H](CO)[C@H](O)[C@H](O)[C@H]1O)[C@H](O)[C@H](O)CCCCCCCCCCCCCC", "note": "[αGalCer, alpha-galactosylceramide]", "values": [{"measurement": "IL-4 level in spleen, comparison of αGalCer doses", "setting": "[1]; 0.5 μg of αGalCer intranasally coadministered with OVA", "value": "highest level of IL-4"}, {"measurement": "production of IFN-γ and IL-4 in spleen and CLN", "setting": "[1]; all groups coimmunized with αGalCer (0.125, 0.5, 2.0 μg) and OVA", "value": "significant increase"}, {"measurement": "level of mucosal IgA in the lung wash and production of IL-4 in CLN, relation to the amount of αGalCer", "setting": "[1]; αGalCer dose series + OVA intranasal", "value": "inverse proportion"}, {"measurement": "levels of Th1 cytokine IFN-γ and Th2 cytokine IL-4 in spleen and CLN", "setting": "[2]", "value": "significantly increased"}, {"measurement": "side effects", "setting": "[3]", "value": "no side effects"}, {"measurement": "secretions of IFN-γ and IL-4 in spleen and CLN", "setting": "IFN-γ and IL-4 secretion", "value": "significantly increased"}, {"measurement": "OVA-specific IgA responses in the nasal wash and the lung wash", "setting": "[4]; 2.0 μg αGalCer + 100 μg OVA intranasal, three times at one-week intervals, vs vehicle alone or OVA alone", "value": "significantly higher; also recorded: increased"}, {"measurement": "OVA-specific Th2 type IgG1 and Th1 type IgG2a levels in serum", "setting": "[4]; co-administration of αGalCer and OVA intranasal", "value": "remarkable increase; also recorded: increased"}, {"measurement": "OVA-specific IgG in serum", "setting": "[4]; αGalCer 0.125, 0.5, 2.0 μg + 100 μg OVA intranasal, vs vehicle alone or OVA alone", "value": "higher levels"}, {"measurement": "weight loss recovery after virus infection", "setting": "[5]", "value": "rapid rate of weight loss recovery"}, {"measurement": "fraction of mice with tumor masses", "setting": "EG7 tumor cells; 0.125 μg αGalCer + 100 μg OVA intranasal", "value": "⅓"}, {"measurement": "tumor formation", "setting": "EG7 tumor cells; 0.5 μg and 2.0 μg αGalCer together with OVA intranasal", "value": "completely inhibited"}, {"measurement": "numbers of IFN-γ-producing CD8+ T cells", "setting": "[6]", "value": "significant increase"}, {"measurement": "proliferation of immune cells from spleen and CLN", "setting": "[7]", "value": "significantly increased"}, {"measurement": "PR8 HA-specific IgG antibody in serum", "setting": "[8]", "value": "high level"}]}]}
